# Assay results reported in US20250170090A1, “METHOD FOR PREVENTING OR TREATING DISEASE OR DISORDER ASSOCIATED WITH ANTINEOPLASTIC AGENT” (ONQUALITY PHARMACEUTICALS CHINA LTD., priority 2022, published 2025).
# Where two headings read alike, the source gives them in different places.
# What was measured:
# [1] = test system: hand-foot syndrome induced by anti-tumor agents; assay: Prevention of hand-foot syndrome induced by anti-tumor agents in rats, NO-NSAID ointment on hind paws (Table 2-2); type: in vivo, SD rats; conditions: Rattus norvegicus, topical, read-out: Control rate; for responders at 0.5 %: ointment 0.50% wt; for responders at 1 %: ointment 1% wt; for responders at 2.5 %: ointment 2.50% wt; for responders at 5 %: ointment 5% wt
# Outline: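 Female SD rats (8 weeks, ~200 g; 10/group) received anti-tumour agents by daily oral gavage in Cremophor EL:ethanol 1:1 diluted ~3× with PBS. NO-NSAID or blank ointment was applied to hind paws once daily, 4 h restrained, then wiped off. Control rate = blank-group minus treated-group hand-foot syndrome incidence.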
# [2] = test system: hand-foot syndrome caused by anti-tumor agents; assay: Treatment of established hand-foot syndrome caused by anti-tumor agents in rats (Table 4); type: in vivo
# Outline: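 Rats (about 200 g), 10 per group, given anti-tumor agent by gavage (Cremophor EL:ethanol 1:1, diluted about 3 times with PBS), treated for established hand-foot syndrome with NO-NSAID ointment. Control rate is the blank-group incidence minus the treatment-group incidence.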
# [3] = test system: human immortalized keratinocytes (HaCaT); assay: CCK-8 cell viability: alleviation of proliferative toxicity of anti-tumor agents on HaCaT (Table 8-1); type: cell-based; conditions: NO-NSAID 100 μM, percentage increase in viable cells vs anti-tumor agent alone
# Outline: (§1)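 Cells seeded at 5,000-10,000 per well and exposed to anti-tumor agent (DMSO solvent) alone or with NO-NSAID (ethanol or water solvent), with solvent controls used for correction. Viability read by CCK-8 after 24-48 hours; proliferative toxicity and its alleviation compared by t test.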
# [4] = test system: gastric epithelial cells (GES-1); assay: CCK-8 cell viability: alleviation of proliferative toxicity of anti-tumor agents on GES-1 (Table 8-3); type: cell-based, human; conditions: NO-NSAID 100 μM
# Outline: as §1
# [5] = test system: human intestinal epithelial cells (FHs 74 Int); assay: CCK-8 cell viability: alleviation of proliferative toxicity of anti-tumor agents on FHs 74 Int (Table 8-4); type: cell-based; conditions: NO-NSAID 100 μM
# Outline: as §1
# [6] = 120 h, Sorafenib 80 mg/kg once a day, Days 5
# [7] = 432 h, Cabozantinib 50 mg/kg once a day, Days 18
# [8] = 432 h, Lenvatinib 100 mg/kg twice a day, Days 18
# [9] = 432 h, Nintedanib 110 mg/kg once a day, Days 18
# [10] = 432 h, Regorafenib 90 mg/kg once a day, Days 18
compound,measurement,setting,value
CC(C(=O)OCCCO[N+](=O)[O-])c1ccc(-c2ccccc2)c(F)c1 (centres unmarked) [Compound A1],responders at 0.5 %,[1]; [6],42.9%
same,responders at 1 %,[1]; [6],42.9%
same,responders at 2.5 %,[1]; [6],60%
same,responders at 5 %,[1]; [6],83.3%
same,responders at 2.5 %,"[1]; 360 h, Apatinib 105 mg/kg once a day, Days 15",57.1%
same,responders at 2.5 %,"[1]; 360 h, Encorafenib 80 mg/kg once a day, Days 15",60%
same,responders at 2.5 %,"[1]; 360 h, Lapatinib 120 mg/kg twice a day, Days 15",33.3%
same,responders at 2.5 %,"[1]; 360 h, Sunitinib 120 mg/kg once a day, Days 15",57.1%
same,responders at 2.5 %,"[1]; 384 h, Fruquintinib 40 mg/kg once a day, Days 16",57.1%
same,responders at 2.5 %,"[1]; 432 h, Anlotinib 20 mg/kg once a day, Days 18",33.3%
same,responders at 2.5 %,"[1]; 432 h, Axitinib 50 mg/kg once a day, Days 18",60%
same,responders at 1 %,[1]; [7],40%
same,responders at 2.5 %,[1]; [7],33.3%
same,responders at 5 %,[1]; [7],66.7%
same,responders at 1 %,[1]; [8],28.6%
same,responders at 2.5 %,[1]; [8],57.1%
same,responders at 5 %,[1]; [8],57.1%
same,responders at 1 %,[1]; [9],33.3%
same,responders at 2.5 %,[1]; [9],66.7%
same,responders at 5 %,[1]; [9],66.7%
same,responders at 0.5 %,[1]; [10],33.3%
same,responders at 1 %,[1]; [10],50%
same,responders at 2.5 %,[1]; [10],42.9%
same,responders at 5 %,[1]; [10],80%
same,responders at 2.5 %,"[1]; 480 h, Erdafitinib 45 mg/kg once a day, Days 20",42.9%
same,responders at 2.5 %,"[1]; 480 h, Olmutinib 100 mg/kg once a day, Days 20",50%
same,Response rate,"[2]; Apatinib 105 mg/kg once every two days, ointment 2.50% wt, Days 7",28.57%
same,Response rate,"[2]; Cabozantinib 50 mg/kg once every two days, ointment 1% wt, Days 11",28.57%
same,Response rate,"[2]; Encorafenib 80 mg/kg once every two days, ointment 2.50% wt, Days 9",14.29%
same,Response rate,"[2]; Fruquintinib 40 mg/kg once every two days, ointment 2.50% wt, Days 8",42.86%
same,Response rate,"[2]; Lenvatinib 65 mg/kg once a day, ointment 2.50% wt, Days 9",40.00%
same,Response rate,"[2]; Olmutinib 100 mg/kg once every two days, ointment 2.50% wt, Days 12",42.86%
same,Response rate,"[2]; Regorafenib 90 mg/kg once every two days, ointment 0.50% wt, Days 8",14.29%
same,Response rate,"[2]; Sorafenib 80 mg/kg once every two days, ointment 2.50% wt, Days 5",28.57%
same,Response rate,"[2]; Sunitinib 120 mg/kg once every two days, ointment 2.50% wt, Days 9",28.57%
same,Response rate % (average),[3]; Afatinib (10 μM),38%
same,Response rate % (average),[3]; Cabozantinib (5 μM),36%
same,Response rate % (average),[3]; Dabrafenib (10 μM),2%
same,Response rate % (average),[3]; Everolimus (5 μM),−3%
same,Response rate % (average),[3]; Infigratinib (15 μM),−6%
same,Response rate % (average),[3]; Lapatinib (5 μM),33%
same,Response rate % (average),[3]; Lenvatinib (10 μM),24%
same,Response rate % (average),[3]; Olmutinib (10 μM),42%
same,Response rate % (average),[3]; Regorafenib (5 μM),41%
same,Response rate % (average),[3]; Selumetinib (5 μM),19%
same,Response rate % (average),[3]; Sorafenib (5 μM),25%
same,Response rate % (average),[3]; Sunitinib (5 μM),15%
same,Response rate % (average),[4]; Afatinib (10 μM),24%
same,Response rate % (average),[4]; Cabozantinib (5 μM),28%
same,Response rate % (average),[4]; Dabrafenib (10 μM),6%
same,Response rate % (average),[4]; Everolimus (5 μM),24%
same,Response rate % (average),[4]; Infigratinib (15 μM),23%
same,Response rate % (average),[4]; Lapatinib (5 μM),31%
same,Response rate % (average),[4]; Lenvatinib (10 μM),41%
same,Response rate % (average),[4]; Olmutinib (10 μM),38%
same,Response rate % (average),[4]; Regorafenib (5 μM),34%
same,Response rate % (average),[4]; Selumetinib (5 μM),18%
same,Response rate % (average),[4]; Sorafenib (5 μM),15%
same,Response rate % (average),[4]; Sunitinib (5 μM),−2%
same,Response rate % (average),[5]; Afatinib (10 μM),39%
same,Response rate % (average),[5]; Cabozantinib (5 μM),27%
same,Response rate % (average),[5]; Dabrafenib (10 μM),−9%
same,Response rate % (average),[5]; Everolimus (5 μM),19%
same,Response rate % (average),[5]; Infigratinib (15 μM),0%
same,Response rate % (average),[5]; Lapatinib (5 μM),35%
same,Response rate % (average),[5]; Lenvatinib (10 μM),43%
same,Response rate % (average),[5]; Olmutinib (10 μM),34%
same,Response rate % (average),[5]; Regorafenib (5 μM),37%
same,Response rate % (average),[5]; Selumetinib (5 μM),29%
same,Response rate % (average),[5]; Sorafenib (5 μM),17%
same,Response rate % (average),[5]; Sunitinib (5 μM),21%
